Legend:
Format in all cases: in vivo
[1] = Body fat mass by DEXA in Swiss (lean) mice, standard diet, fasted 48 hours before measurement; settings: for decrease of body fat mass: 100 mg/kg/day in drinking water, vs control; for decrease of body fat mass / body fat mass: fasted 48 h; for body fat mass: mean±SEM
Description: Six to 8 weeks old male (Crl:CD-1(ICR)BR) Swiss mice, and six to ten weeks old male RjOrl Swiss mice (i.e. lean mice) weighing 28 and 32 grams were purchased from Dépré (Saint Doulchard, France). Ten to 12 weeks old ob/ob male (C57BL/6-ob) mice (i.e. obese mice), weighing 40 to 44 grams were purchased from Janvier (Le-Genest-St-Isle, France). In one experiment, younger ob/ob mice (5-6 weeks old) weighing 25-26 grams were also studied. In genetically obese ob/ob mice, a mutation on the gene of leptin prevents the normal production of this hormone, thus increasing appetite and decreasing energy consumption (Friedman J. M., Halaas J. L., 1998, Nature 395 : 763-770). […] The animals were acclimatized for one to two weeks before the start of experiments.
D,L-β-Aminoisobutyric acid (BAIBA) was purchased from Sigma-Aldrich. BAIBA has been administered in drinking water at the dose of 100 mg/kg/day or 500 mg/kg/day for 6 weeks, 2 months or 4 months according to the experiments.
The in vivo determination of body fat mass in anesthetized mice has been performed by “DEXA” (Dual Energy X-ray Absorptiometry) (Pietriobelli A., Formica C., Wang Z., Heymsfield S. B., 1996, Am. J. Physiol. 271 (Endocrinol. Metab. 34): E941-E951)). […] It is noteworthy that DEXA also gives for each investigated animal its lean mass that is the total amount of water and proteins (in grams) in the body (excluding the head). Therefore, for a given animal, DEXA allows the determination of the percentage of body fat which is its body fat mass divided by the sum of its body lean and fat masses (fat mass/(lean mass+fat mass)). The “DEXA” apparatus was a Piximus® from Lunar Corporation (Madison, Wis.). Mice were anesthetized thanks to a mixture of xylazine and ketamine.
Procedure 2: the animals were fasted for 48 hours before DEXA measurements which have been performed 2 weeks (T2) and 6 weeks (T6) after starting the treatment. In this procedure, DEXA measurement before the beginning of treatment has not been performed. Comparisons of the different parameters (e.g. fat mass, body weight) between both groups were performed at T2 and at T6.
In a first series of experiments, the effects of 100 mg/kg/day of β-aminoisobutyric acid (BAIBA) on body fat were investigated in Swiss (lean) mice fed with a standard diet (A04 chow) and fasted for 48 hours before DEXA measurements. Mice were 6 to 8 weeks old at the beginning of the experiment. DEXA was performed twice after the initiation of the treatment. In this experiment, BAIBA decreased body fat mass by 31% and 25%, respectively after 2 and 6 weeks of treatment. The results in FIG. 1 indicate that: • after 2 weeks, body fat mass was 2.63±0.23 and 1.80±0.11 grams, respectively in control mice (n=7) and mice receiving BAIBA (n=7); • after 6 weeks, body fat mass was 3.40±0.27 and 2.56±0.32 grams, respectively in control mice and mice receiving BAIBA.

[2] = Liver lipids in Swiss mice fed with a western diet; settings: 100 mg/kg/day, western diet 6 weeks, fasted 48 h
Protocol: Total lipids and triglycerides in the liver of animals were assessed according to a procedure partially reported by (Letteron P., Fromenty B., Terris B., Degott C., Pessayre D., 1996, J. Hepatol. 24 : 200-208). Briefly, after killing of the animals, livers were removed and homogenized in sterile water. Hepatic lipids were thus extracted by a mixture of chloroform and methanol (2/1; v/v). After removal of the aqueous phase, the organic phase (chloroform containing the lipids) was evaporated and the amount of lipids was determined by gravimetry. Lipids were subsequently resuspended in isopropanol (final concentration, ca. 10 mg/mL). After removal of the phopholipids by using aluminum hydroxide hydrate, triglycerides were determined colorimetrically by using periodate and the Nash's reagent (containing acetylacetone, ammonium acetate and isopropanol). The reaction generates diacetyldihydrolutidine which is assayed by spectrophotometry (λ=410 nm).
Liver lipids were assessed in mice fed with the western diet (WD) receiving or not of 100 mg/kg/day of β-aminoisobutyric acid (BAIBA) in the drinking water (8 mice in each group). For comparison, the experiment also included a group of mice (n=8) fed with a standard diet (SD). These animals were those used for the determination of body fat by DEXA (see above, paragraph I-c) but after the last DEXA measurement (i.e. after 6 weeks of treatment), mice were allowed to recover from the anaesthesia for ca. 2 days and were then submitted to a 48-hour period of fast. At the end of this fasting period DEXA was again performed (see above) and then mice were killed for liver lipids determination. The western diet was responsible for an increase in liver lipids as compared to mice fed with the standard diet.

[3] = Liver histology in ob/ob mice, first series (48-hr fast); settings: standard diet
Protocol: Plasma HDL-cholesterol and alanine aminotransferase (ALT) were measured on an automatic analyser (Olympus AU400®) with commercial kits (Olympus Diagnostica GmbH, references OSR6187 and OSR6107, respectively).
Finally, liver histology was performed according to regular procedure. Steatosis and fibrosis were assessed thanks to the Oil red O and Masson's trichrome stains, respectively, whereas necrosis and inflammation were determined thanks to the HPS (Hematoxylin-Phloxin-Saffron) stain, or the HE (Hematoxylin-Eosin) stain. In one experiment, perisinusoidal fibrosis was assessed with the Sirius Red stain.
Liver histology was first examined in ob/ob mice fed with standard diet receiving (11 mice) or not (10 mice) β-aminoisobutyric acid in the drinking water. In this experiment, mice were submitted to a 48-hr period of fast before killing and liver examination.

[4] = Plasma lipids in lean mice fed with a standard diet, 6 weeks, not fasted; settings: 100 mg/kg/day 6 weeks
Protocol: Plasma lipids (triglycerides, total cholesterol, phospholipids) were measured on an automatic analyser (Hitachi 717®). The commercial kits used to assess triglycerides, total cholesterol and phospholipids on this analyser were all from bioMérieux (references 61238, 61219 and 61491, respectively). Plasma non esterified fatty acids (NEFA) were assessed by using a commercial kit (Wako, reference 994-75409). Hepatic and plasma lipids were performed at the end of six weeks of treatment in animals that have been fasted for 48 hours. Triglycerides and HDL-cholesterol were also assessed after 2 months (in the fed state) or after 4 months of treatment (after an overnight fast).
Plasma lipids were assessed in lean mice fed with a standard diet and receiving or not of 100 mg/kg/day of β-aminoisobutyric acid (BAIBA) in the drinking water during 6 weeks. There were six animals per group. At the end of the 6 weeks of treatment, mice were not fasted and samples of blood were then collected for the assessment of plasma triglycerides and total cholesterol. […] Indeed, plasma triglycerides were 3.18±0.23 and 2.95±0.21 mmol/L, respectively in control and treated mice whereas plasma total cholesterol was 5.35±0.35 and 5.23±0.28 mmol/L, respectively in control and treated mice.

## CC(CN)C(=O)O (racemic) [BAIBA, D,L-β-Aminoisobutyric acid]
[1]; after 2 weeks
  decrease of body fat mass: 31%
[1]; after 6 weeks
  decrease of body fat mass: 25%
[1]; 100 mg/kg/day, after 2 and 6 weeks
  body weight vs control mice: not significantly different
[1]; 100 mg/kg/day, after 2 weeks
  body fat mass: 1.80±0.11 grams
[1]; 100 mg/kg/day, after 6 weeks
  body fat mass: 2.56±0.32 grams
[2]
  hepatic triglycerides: 33±6 mg/whole liver
  liver lipids: 108±7 mg/whole liver
[2]; vs Controls-WD
  decrease of liver total lipids: 24%
  decrease of liver triglycerides: 17%
[3]
  animals with inflammation: 63%
  animals with necrosis: 63%
  animals with perisinusoidal fibrosis: 45%
  plasma alanine aminotransferase: not decreased
[3]; 11 treated mice
  mice with between 90 and 100% of fat-laden hepatocytes: 27%
[4]
  plasma total cholesterol: 5.23 ± 0.28 mmol/L
  plasma triglycerides: 2.95 ± 0.21 mmol/L
